Laboratory results reported in the supplement of paper PMC4954754.
± gives the uncertainty stated by the source.

How the values were obtained:
Settings in all cases: 18 h
[1] = system: HEK293T-Rex ERSE-FLuc; assay: maximal ERSE-FLuc activation from dose-response fit, relative to thapsigargin (% of thapsigargin); higher = stronger activation
Procedure: (§1)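 Dose-response of hit compounds in HEK293T-Rex cells stably expressing ERSE-FLuc or XBP1-RLuc reporters, 18 hr treatment, 1536-well; luminescence normalised to 500 nM thapsigargin (100%) and DMSO (0%), fitted to give EC50 (M) and maximal activation; '>' marks EC50 above the top tested dose (~17 µM).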

[2] = system: HEK293T-Rex XBP1-RLuc; assay: EC50 for XBP1-RLuc reporter activation
Procedure: as §1

[3] = system: HEK293T-Rex ERSE-FLuc; assay: EC50 for ERSE-FLuc reporter activation
Procedure: as §1

[4] = system: HEK293T-Rex XBP1-RLuc; assay: maximal XBP1-RLuc activation from dose-response fit, relative to thapsigargin (% of thapsigargin); higher = stronger activation
Procedure: as §1

Compound	maximal ERSE-FLuc activation [1]	EC50 for XBP1-RLuc reporter activation [2] [µM]	EC50 for ERSE-FLuc reporter activation [3] [µM]	maximal XBP1-RLuc activation [4]
CCCCCCc1ccc(-c2ncc(N)cn2)cc1	76.7 ± 9.1	> 16.9	5.65	44.3 ± 1.5
Cc1ccc2nc(/C(C#N)=C\c3cc(Cl)cc4c3OCOC4)[nH]c2c1	20.1 ± 3.4	> 16	> 16	3.21 ± 1.4
O=c1[nH]c(COc2ccccc2)nc2sc3c(c12)CCCC3	23.3 ± 2.4	> 16.3	> 16.3	6.01 ± 1.1
Cc1ccn2cc(-c3ccc(O)c(O)c3)nc2c1	25.3 ± 5.2	11.9	> 20.3	70.3 ± 12
COc1cc2ccccc2cc1C(=O)N/N=C/c1cccs1	21.5 ± 3.6	> 16.9	> 16.9	5.33 ± 6.5
Nc1ccccc1NC(=O)c1ccc(Cl)cc1	82.8 ± 4.7	> 17.2	7.9	34.9 ± 0.91
Nc1nc(Nc2ccc(Cl)c(Cl)c2)nc2ccccc12	138 ± 11	12.3	7.93	61.9 ± 4
O=[N+]([O-])c1ccccc1NC(=S)N/N=C/c1ccc(O)c(O)c1	21.3 ± 3.4	> 18.3	> 18.3	28.2 ± 2.5
NC(=O)c1c(NC(=O)c2cccc3ccccc23)sc2c1CCC2	21.9 ± 5.8	> 16.9	> 16.9	23.1 ± 6.4
O=C(Nc1nc2c(s1)CCCC2)c1cccc2ccccc12	32.2 ± 1.6	> 18.2	> 18.2	6.96 ± 1.1
CCOc1cc(C2C(C(=O)OC3CCCCC3)=C(C)NC3=C2C(=O)CC(c2ccc(OC)cc2)C3)cc(Br)c1O (configuration not stated)	70.43 ± 0.082	5.3	3.95	88.6 ± 10
Cc1ccc(O)c(NC(=O)CN(C)S(=O)(=O)c2ccc(Cl)cc2)c1	43.4 ± 10	> 16.9	> 16.9	31.4 ± 0.96
CCc1nc2sc(C(=O)c3ccccc3)c(N)c2cc1C	25.4 ± 6.3	> 16.3	> 16.3	4.69 ± 3.2
COc1cccc(-c2cc(C(=O)Nc3cc(C)ccc3O)on2)c1	87 ± 20	> 16.9	8.72	25.6 ± 5.2
O=C(COC(=O)c1ccc(O)c(O)c1)Nc1nc(-c2ccccc2)cs1	36.1 ± 4.4	16.8	> 18.2	53.4 ± 3.6
Oc1ccc(-c2csc(-c3cccnc3)n2)cc1O	71.5 ± 11	12.8	7.5	80.1 ± 5.1
O=C(N/N=C/c1ccc2c(c1)OCO2)c1cccc(F)c1	20.8 ± 5.2	> 16.9	> 16.9	5.7 ± 0.65
Cc1ccc(O)c(NC(=S)NC(=O)/C=C/c2ccco2)c1	30.2 ± 7.3	> 16.9	> 16.9	5.76 ± 1.5
Cc1cnc(NC(=O)c2sc3nc4c(C)cccc4cc3c2N)s1	58.9 ± 6.1	6.88	11.5	96.9 ± 3.6
Nc1ccc(-c2nc3cc(N)c(Cl)cc3[nH]2)cc1	29.6 ± 7.5	> 14.7	> 14.7	17.6 ± 0.39
Cc1ccc(O)c(N/C=C/C(=O)c2ccc(F)cc2)c1	303 ± 13	11.9	3.31	84.1 ± 19
CCCCNNC(=O)c1ccc(Br)cc1	95.4 ± 25	> 17.4	4.91	8.05 ± 3.5
O=C(N/N=C\C(Cl)=C\c1ccccc1)c1n[nH]c2c1CCCC2	19.7 ± 5.1	> 16.9	> 16.9	3.51 ± 3.7

Compound	maximal ERSE-FLuc activation [1]	EC50 for XBP1-RLuc reporter activation [2] [µM]	EC50 for ERSE-FLuc reporter activation [3] [µM]	maximal XBP1-RLuc activation [4]
COc1ccc(/C=N/c2sc3c(c2C(N)=O)CCCC3)cc1	20.9 ± 2	> 16.9	> 16.9	4.94 ± 3.8
CCCCCCOc1ccc(/C(C)=N/NC2=NCCN2)cc1[N+](=O)[O-]	34.7 ± 1.6	> 16.9	> 16.9	16.3 ± 1.6
CCN(CC)c1ccc(NC(=O)c2cccc(OC)c2)cc1	29.7 ± 5.3	> 17.8	> 17.8	2.18 ± 7.1
Cc1ccc(-c2csc(Nc3ccc(O)cc3)n2)cc1	40.9 ± 7.5	8.04	> 16.9	127 ± 1.4
O=[N+]([O-])c1ccc2nc(/C=C/c3ccccc3)[nH]c2c1	23.7 ± 12	> 16.9	> 16.9	3.13 ± 2.4
COc1cc(/C=C/c2ccc(O)c(OC)c2)ccc1O	31.1 ± 6.9	8.73	> 16.9	72.3 ± 8.1
Cc1ccc(O)c(NC(=O)CCc2ccccc2)c1	107 ± 12	> 16.9	4.16	26.1 ± 0.67
COc1ccc(-c2nn(-c3ccccc3)cc2/C=C/C(=O)O)cc1[N+](=O)[O-]	20.8 ± 4.1	> 18.5	> 18.5	6.98 ± 2.8
CN1C(=O)/C(=C\c2ccc(O)c(O)c2)SC1=S	28 ± 15	> 16.9	> 16.9	40.5 ± 3.6
O=C(CC(=O)Nc1ccc2nc3n(c(=O)c2c1)CCCCC3)NCc1ccco1	77.9 ± 9.8	> 16.9	8.59	40.7 ± 7.4
CC1(C)Cc2ccccc2/C(=C/C(=O)C(=O)N/N=C/c2ccc(O)c(O)c2)N1	39 ± 3.2	6.13	> 16.9	54.9 ± 3.4
N#C/C(=C\c1ccc(O)c(O)c1)c1nc2ccccc2[nH]1	37.6 ± 12	> 16.9	> 16.9	25.6 ± 1.6
CCOc1cc(/C=C2/NC(=O)N(Cc3ccc(F)cc3)C2=O)ccc1O	36.3 ± 4.1	11.9	> 16.9	56.8 ± 0.68
CCOc1ccc(NC(=O)c2ccc3c(c2)OCO3)c([N+](=O)[O-])c1	14.7 ± 3	> 18.6	> 18.6	0.524 ± 1.2
Cc1ccc(O)c(N/C=C/C(=O)c2cccs2)c1	225 ± 15	10	5.29	56.5 ± 2.8
Cc1ccc(O)c(-c2cc(C(F)(F)C(F)F)no2)c1	79.8 ± 24	> 16.7	7.56	23.6 ± 5.9
COc1ccc(N(C(=O)c2ccccc2)S(=O)(=O)c2cc(OC)ccc2OC)cc1	125 ± 14	5.82	6.69	185 ± 8.3
CN(C)c1ccc(C(=NO)c2ccc(N(C)C)cc2)cc1	21.7 ± 4.1	> 17.1	> 17.1	7.51 ± 2.8
O=C(/C=C/c1ccco1)Nc1ccccn1	18.7 ± 4.8	> 16.9	> 16.9	1.83 ± 1.4
CNC(=O)c1ccccc1Nc1cc(NC(=O)Cc2ccc(F)c(F)c2)ncc1C(F)(F)F	3.28 ± 7.2	> 16.9	> 16.9	2.4 ± 1.1
Cc1ccc(NC(=S)NC(=O)C(=O)Nc2ccccc2)cc1	6.38 ± 2.8	> 16.9	> 16.9	2.05 ± 0.91
O=C(Nc1ccc2c(c1)OCCO2)C(=O)Nc1ccccc1Cl	16.5 ± 0.52	> 16.9	> 16.9	2.68 ± 2.8
C=CCNC(=O)c1sc2nc3cc(C)c(C)cc3cc2c1N	8.68 ± 2	> 16.9	> 16.9	2.32 ± 1.2

Compound	maximal ERSE-FLuc activation [1]	EC50 for XBP1-RLuc reporter activation [2] [µM]	EC50 for ERSE-FLuc reporter activation [3] [µM]	maximal XBP1-RLuc activation [4]
Nc1ccccc1NC(=O)c1ccc(C(=O)Nc2ccccc2N)cc1	65.8 ± 3.4	> 9.59	7.17	16.1 ± 6.4
COc1cccc(C2=NOC(C(=O)Nc3cc(C)ccc3O)C2)c1 (configuration not stated)	92.8 ± 22	> 16.9	7.27	35.1 ± 3
O=C(Nc1ccc2nc(NC(=O)C3CCCCC3)sc2c1)C1CCCCC1	13.9 ± 2.4	> 10.2	> 10.2	5.73 ± 2.7
Nc1ccc2nc(-c3ccc(Br)cc3)[nH]c2c1	74.6 ± 19	17.3	12.5	51.4 ± 4.2
COc1ccccc1-c1cnnc(N/N=C/c2c[nH]c3ccccc23)n1	49.9 ± 8.2	> 16.9	> 16.9	29.8 ± 2.1
COc1ccc(-c2cnnc(N/N=C/c3ccc(O)c(O)c3)n2)cc1	54.5 ± 13	16.8	14.7	50.5 ± 3.9
CC(C)c1ccc(/C=N\NC(=O)c2ccccc2)cc1	19.3 ± 9.1	> 16.9	> 16.9	17.7 ± 5.7
Nc1ccc2nc(-c3ccc(Cl)cc3)[nH]c2c1	68.5 ± 6.7	> 16.9	> 5.63	35.3 ± 12
N#Cc1c(NC(=O)c2cccc(F)c2)sc2c1CCC2	19.5 ± 3.1	> 16.5	> 16.5	2.22 ± 1.6
C(=N/Nc1nnc2c(n1)[nH]c1ccccc12)/c1c[nH]c2ccccc12	43.9 ± 1.3	> 16.9	> 16.9	26 ± 1.9
COc1ccc(/C=N/NC(=O)c2cccc(F)c2)cc1Br	31 ± 5.5	> 16.9	> 16.9	1.14 ± 6.2
O=C1N/C(=C\c2ccc(O)cc2)C(O)=C1C=NCc1ccccc1	40.4 ± 7.5	2.96	> 16.9	74.2 ± 4.9
Cc1ccc(C(=O)Nc2sc3c(c2C#N)CCC3)cc1	17.6 ± 5	> 16.7	> 16.7	2.39 ± 0.61
CCOC(=O)c1sc(NC(=O)c2cccc3ccccc23)nc1C	25.3 ± 5.7	> 16.9	> 16.9	3.29 ± 3.4
N#Cc1c(NC(=O)/C=C/c2ccco2)sc2c1CCCC2	22.8 ± 6.6	> 17	> 17	5.59 ± 3
CCOc1cccc(C(=O)Nc2ccc(-c3nc4ccc(C(=O)c5ccccc5)cc4[nH]3)cc2)c1	25.2 ± 5	2.33	> 11.5	66.4 ± 12
COc1ccc(/C=C/c2nc3cc([N+](=O)[O-])ccc3s2)cc1O	39.5 ± 2.4	> 18.5	> 18.5	8.74 ± 5.7
CS(=O)(=O)c1ncc(Cl)c(C(=O)C(C#N)c2nc3ccccc3s2)n1 (configuration not stated)	73.2 ± 8.2	3.99	2.49	266 ± 8.4
CCCNc1ccnc(N2CCc3ccccc3C2)n1	12 ± 7.5	> 17.7	> 17.7	1.68 ± 0.28
Fc1ccc(-c2nnc3ccc(N4CCN(c5ccccn5)CC4)nn23)cc1	5.1 ± 4.1	> 16.9	> 16.9	7.7 ± 2.6
COc1ccc(-c2csc(-c3ccc(O)cc3)n2)cc1	30.9 ± 6.5	> 19.1	> 19.1	33.9 ± 1.9
Cc1cc(C)nc(/N=C(\N)Nc2ccc(OCc3ccc(Cl)cc3)cc2)n1	47.3 ± 7.6	2.03	> 14	88.2 ± 3.4
